From the NIST ThermoML archive (doi:10.1021/je034224j)
Numbers after ± are expanded uncertainties.

Assay: xn = mol fraction of the nth substance listed

CCOC(=O)CC [ethyl propanoate] + O=C=O
Liquid
Conditions | mass density [kg/m3]
313 K, 2960 kPa, x2 = 0.5818 | 971 ± 6
313 K, 3960 kPa, x2 = 0.6881 | 973.6 ± 6.2
313 K, 4460 kPa, x2 = 0.7509 | 965.9 ± 6.5
313 K, 4960 kPa, x2 = 0.799 | 960.9 ± 7.1
313 K, 5460 kPa, x2 = 0.8301 | 950.9 ± 14
313 K, 5970 kPa, x2 = 0.8675 | 923.3 ± 11
313 K, 6270 kPa, x2 = 0.8871 | 902.4 ± 12
333 K, 2960 kPa, x2 = 0.4093 | 900.2 ± 10
333 K, 3460 kPa, x2 = 0.4733 | 905.3 ± 10
333 K, 4460 kPa, x2 = 0.5479 | 902.9 ± 11
333 K, 5460 kPa, x2 = 0.6214 | 895.5 ± 12
333 K, 5960 kPa, x2 = 0.6608 | 886.6 ± 13
333 K, 6660 kPa, x2 = 0.7224 | 868.7 ± 17
333 K, 7260 kPa, x2 = 0.7819 | 842.2 ± 18
353 K, 2960 kPa, x2 = 0.3557 | 864.4 ± 13
353 K, 3860 kPa, x2 = 0.4093 | 864.9 ± 13
353 K, 4960 kPa, x2 = 0.4746 | 869.1 ± 14
353 K, 5960 kPa, x2 = 0.5459 | 855.1 ± 16
353 K, 6960 kPa, x2 = 0.6173 | 854 ± 16
353 K, 7970 kPa, x2 = 0.6847 | 850.5 ± 22
353 K, 8870 kPa, x2 = 0.7529 | 824.3 ± 20
373 K, 2960 kPa, x2 = 0.3282 | 817 ± 16
373 K, 4460 kPa, x2 = 0.3961 | 812.4 ± 18
373 K, 5960 kPa, x2 = 0.4965 | 802.1 ± 20
373 K, 7470 kPa, x2 = 0.5422 | 788.2 ± 22
373 K, 8970 kPa, x2 = 0.6332 | 766.7 ± 26
373 K, 10570 kPa, x2 = 0.7127 | 735.7 ± 31
373 K, 10970 kPa, x2 = 0.7391 | 720.9 ± 33

CCOC(C)=O [ethyl acetate] + O=C=O
Conditions | mass density [kg/m3]
333 K, 5360 kPa, Gas, x2 = 0.1231 | 987.7 ± 4.9
333 K, 5360 kPa, Liquid, x2 = 0.5727 | 865.7 ± 14
333 K, 5960 kPa, Gas, x2 = 0.1544 | 986 ± 5.1
333 K, 5960 kPa, Liquid, x2 = 0.6283 | 836.3 ± 17
333 K, 6470 kPa, Gas, x2 = 0.1698 | 986.1 ± 5.1
333 K, 6470 kPa, Liquid, x2 = 0.6584 | 814.8 ± 19
333 K, 7570 kPa, Gas, x2 = 0.2068 | 978.7 ± 5.8
333 K, 7570 kPa, Liquid, x2 = 0.7586 | 785.3 ± 23
333 K, 8460 kPa, Gas, x2 = 0.2731 | 973.6 ± 6.4
333 K, 8460 kPa, Liquid, x2 = 0.8057 | 746.7 ± 27
333 K, 8970 kPa, Gas, x2 = 0.3708 | 969.6 ± 6.8
333 K, 8970 kPa, Liquid, x2 = 0.8421 | 720.4 ± 30
353 K, 3960 kPa, Gas, x2 = 0.0666 | 980.2 ± 5.4
353 K, 3960 kPa, Liquid, x2 = 0.5532 | 923.2 ± 9.9
353 K, 5060 kPa, Gas, x2 = 0.0935 | 978.3 ± 5.8
353 K, 5060 kPa, Liquid, x2 = 0.5767 | 920.9 ± 10
353 K, 6270 kPa, Gas, x2 = 0.127 | 973.9 ± 6.1
353 K, 6270 kPa, Liquid, x2 = 0.6075 | 919.6 ± 10
353 K, 7470 kPa, Gas, x2 = 0.1822 | 967.8 ± 6.8
353 K, 7470 kPa, Liquid, x2 = 0.627 | 901.7 ± 13
353 K, 8470 kPa, Gas, x2 = 0.22 | 966.1 ± 7.1
353 K, 8470 kPa, Liquid, x2 = 0.6668 | 854 ± 18
353 K, 9470 kPa, Gas, x2 = 0.2634 | 956 ± 8.2
353 K, 9470 kPa, Liquid, x2 = 0.7587 | 746.5 ± 29
373 K, 5690 kPa, Gas, x2 = 0.0819 | 964.1 ± 6.9
373 K, 5690 kPa, Liquid, x2 = 0.4697 | 758.8 ± 23
373 K, 6460 kPa, Gas, x2 = 0.1202 | 961.2 ± 7.2
373 K, 6460 kPa, Liquid, x2 = 0.5001 | 784.3 ± 22
373 K, 7960 kPa, Gas, x2 = 0.1682 | 955.5 ± 8
373 K, 7960 kPa, Liquid, x2 = 0.5505 | 790.5 ± 23
373 K, 9470 kPa, Gas, x2 = 0.2401 | 944 ± 9.5
373 K, 9470 kPa, Liquid, x2 = 0.6046 | 781.7 ± 25
373 K, 10570 kPa, Gas, x2 = 0.352 | 923.9 ± 12
373 K, 10570 kPa, Liquid, x2 = 0.6715 | 788.4 ± 26
373 K, 11370 kPa, Gas, x2 = 0.4692 | 913.5 ± 13
373 K, 11370 kPa, Liquid, x2 = 0.7259 | 780.3 ± 27
393 K, 5060 kPa, Gas, x2 = 0.055 | 951.6 ± 7.8
393 K, 5060 kPa, Liquid, x2 = 0.455 | 713.7 ± 26
393 K, 5460 kPa, Gas, x2 = 0.0849 | 941.9 ± 8.7
393 K, 5460 kPa, Liquid, x2 = 0.4831 | 744.8 ± 24
393 K, 6970 kPa, Gas, x2 = 0.1218 | 932.1 ± 17
393 K, 6970 kPa, Liquid, x2 = 0.5129 | 771.1 ± 24
393 K, 8480 kPa, Gas, x2 = 0.1766 | 917.3 ± 12
393 K, 8480 kPa, Liquid, x2 = 0.545 | 804.3 ± 22
393 K, 9970 kPa, Gas, x2 = 0.255 | 895.6 ± 14
393 K, 9970 kPa, Liquid, x2 = 0.5744 | 791.8 ± 25
393 K, 11470 kPa, Gas, x2 = 0.4 | 856.8 ± 19
393 K, 11470 kPa, Liquid, x2 = 0.6237 | 755.8 ± 30
393 K, 11970 kPa, Gas, x2 = 0.6025 | 846.6 ± 21
393 K, 11970 kPa, Liquid, x2 = 0.6629 | 719.7 ± 35
